Measurements: patent US20100209496A1, “LIQUID AND SEMI-SOLID PHARMACEUTICAL FORMULATIONS FOR ORAL ADMINISTRATION OF A SUBSTITUTED AMIDE” (priority 2006, published 2010)

Key:
[1] = Compound I Form I solubility in various liquid vehicles; assay type: physicochemical; settings: aqueous
[2] = Bioavailability when dosed as a crystalline solid (dogs); assay type: in vivo
[3] = Bioavailability when dosed as a crystalline solid (rats); assay type: in vivo
[4] = Bioavailability (drug plasma levels) from liquid-filled capsule dosage form; assay type: in vivo; settings: compound in solution in liquid and semi-solid excipients, versus crystalline solid

aqueous solubility [1]: < 0.2 µg/mL | bioavailability [2]: poorly bioavailable | bioavailability [3]: poorly bioavailable | bioavailability [4]: increased dramatically
Substance: 3-[(3aR,4R,5S,7aS)-5-{(1R)-1-[3,5-bis(Trifluoromethyl)phenyl]ethoxy}-4-(4-fluorophenyl)-octahydro-2H-isoindol-2-yl]cyclopent-2-en-1-one [Compound I]
